Each structure is given as a SMILES string. Some results are limits rather than exact numbers.

The target in series [1] is T1, CDK6/Cyclin D3 (Homo sapiens, UniProt Q00534).
T1 construct: purchased Nanosyn, Inc. (contract assay)
Type of series: biochemical. As to conditions: 12-point dose response, singlicate, at Km for ATP.

Series [2] addresses T2, CDK7/Cyclin H/ Mat1 (Homo sapiens, UniProt P50613).
T2 construct: purchased Nanosyn, Inc. (contract assay)
It is filed as biochemical. As to conditions: 12-point dose response, singlicate, at Km for ATP.

Series [3] addresses T3, CDK4/ CyclinD1 (Homo sapiens, UniProt P11802).
T3 construct: purchased DiscoveRx (KdELECT service)
Kind of series: KdELECT Kd determination (DiscoveRx). As to conditions: duplicate 11-point dose-response curves. Type of series: binding. As for the experimental part:
(§1) G1T38 was profiled at DiscoveRx (Fremont, CA) using their KINOMEscan and scanMAX screening technology.
(§2) Supplementary Table 1: G1T38 Kinase Interactions
(§3) primary screen. Inhibitor binding constants (Kd values) were calculated from duplicate 11-point dose-response curves for
(§4) (1 picture or pasted object on this page, not shown here)

Series [4] deals with T4, NEK10 (Homo sapiens, UniProt Q6ZWH5).
T4 construct: purchased DiscoveRx (KdELECT service)
T4 sequence (Q6ZWH5 whole entry): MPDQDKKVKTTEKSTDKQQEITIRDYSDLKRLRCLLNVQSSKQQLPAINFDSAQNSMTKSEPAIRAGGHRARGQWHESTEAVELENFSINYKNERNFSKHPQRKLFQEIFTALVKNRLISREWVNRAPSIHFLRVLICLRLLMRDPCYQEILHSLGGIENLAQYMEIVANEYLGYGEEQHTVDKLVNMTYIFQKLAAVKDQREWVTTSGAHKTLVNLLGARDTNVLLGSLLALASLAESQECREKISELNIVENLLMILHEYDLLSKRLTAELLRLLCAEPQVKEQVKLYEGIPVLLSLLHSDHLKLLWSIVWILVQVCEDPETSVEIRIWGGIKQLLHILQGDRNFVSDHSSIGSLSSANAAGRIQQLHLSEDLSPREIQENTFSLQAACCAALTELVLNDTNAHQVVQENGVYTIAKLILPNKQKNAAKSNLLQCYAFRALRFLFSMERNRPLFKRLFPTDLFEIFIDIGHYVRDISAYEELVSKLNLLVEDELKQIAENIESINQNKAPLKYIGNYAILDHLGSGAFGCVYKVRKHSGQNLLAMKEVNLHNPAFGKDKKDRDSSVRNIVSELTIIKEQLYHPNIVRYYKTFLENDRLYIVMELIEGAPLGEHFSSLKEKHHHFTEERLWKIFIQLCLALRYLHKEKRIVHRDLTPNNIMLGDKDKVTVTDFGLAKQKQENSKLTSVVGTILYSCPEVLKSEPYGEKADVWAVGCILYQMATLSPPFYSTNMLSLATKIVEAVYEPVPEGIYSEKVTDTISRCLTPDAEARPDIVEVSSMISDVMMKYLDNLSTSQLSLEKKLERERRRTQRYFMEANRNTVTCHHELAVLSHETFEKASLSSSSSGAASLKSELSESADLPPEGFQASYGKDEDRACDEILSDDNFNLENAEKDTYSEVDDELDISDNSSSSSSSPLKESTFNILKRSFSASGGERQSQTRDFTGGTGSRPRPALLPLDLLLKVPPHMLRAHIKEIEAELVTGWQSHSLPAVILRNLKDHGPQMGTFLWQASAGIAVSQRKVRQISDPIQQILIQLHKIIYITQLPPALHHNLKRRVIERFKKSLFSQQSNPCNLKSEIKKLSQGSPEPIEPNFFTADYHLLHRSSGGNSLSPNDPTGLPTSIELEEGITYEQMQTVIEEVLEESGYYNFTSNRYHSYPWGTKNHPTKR
Kind of series: KdELECT Kd determination (DiscoveRx). As to conditions: duplicate 11-point dose-response curves. It is filed as binding. As for the experimental part: as §1, §2, §3, §4

Series [5] addresses T5, SLK (Homo sapiens, UniProt Q9H2G2).
T5 construct: purchased DiscoveRx (KdELECT service)
In words: KdELECT Kd determination (DiscoveRx). It is filed as binding. As to conditions: duplicate 11-point dose-response curves. As to the method: as §1, §2, §3, §4

Series [6] deals with CDK4/6-independent cell lines. In words: Cell proliferation, CellTiter-Glo, statement for the group. Type of series: cell-based. The conditions noted are these: read-out: inhibition of proliferation in CDK4/6-independent cell lines. As for the experimental part:
To assess the capacity of G1T38 to inhibit proliferation of tumor cell lines, a broad panel of CDK4/6 dependent and independent lines was evaluated using CellTiter Glo (Table 2).
SupT1, Daudi, MCF7, ZR-75-1, A2058, WM2664, and H69 cells were seeded at 1000 cells per well; MV-4-11 and BV173 cells were plated at 4000 cells per well; Tom-1 cells were plated at 8,000 cells per well; NALM-1 cells were plated at 20,000 cells per well in Costar 3903 96 well plates. After 24 hours, plates were dosed with G1T38 at a nine-point dose concentration from 10 μM to 1 nM. Cell viability was determined after four or six days using the CellTiter-Glo® assay (Promega; Madison, WI) following manufacturer's recommendations. Plates were processed on BioTek (Winooski, VT) Synergy2 multi-mode plate reader and data analyzed using GraphPad (San Diego, CA) Prism 5 statistical software.
In general terms: ATP-based viability assays read luminescence as a measure of living cells.

A short description of series [7]: in vivo. The conditions noted are these: po, 100 mg/kg. As to the method: To evaluate the murine PK/PD relationship of G1T38, an ER^+ MCF7 xenograft model was utilized. Compound concentrations were measured in plasma and tumors from tumor-bearing mice given a single oral dose of G1T38 (100 mg/kg). […] To assess the effects of G1T38 on pRB, tumors were harvested and pRB was analyzed by immunoblotting.

Series [8] deals with neutrophils. In words: GLP 28-day toxicology study, CBC. It is filed as in vivo, beagle dogs. The conditions noted are these: 1, 2.5 and 5 mg/kg/day. As to the method:
However, from 14 to 25 days, cells reached a steady state level, which was readily reversible once dosing was stopped (Figure 5E).
Beagle dogs (5/ sex) were dosed once daily for 28 consecutive days via oral gavage. The dose levels were 1, 2.5 and 5 mg/kg/day and administered at a dose volume of 5 mL/kg. Hematology samples (1ml/ time point) were collected in K3EDTA tubes twice pre-test and then on days 7, 14, 21, and 25 during the dosing period and on days 35, and 42 during the recovery period. Complete blood counts were performed and results reported. All studies were conducted utilizing methods and protocols in accordance with IACUC approval at MPI Research (Mattawan, MI).

Series [9] can be described thus: Elimination half-life. The conditions noted are these: in vivo. As to the method: Supplementary Table 2: Elimination Half-Lives of G1T38
T1/2 (hrs) Mouse Rat Dog Human
Elimination half-lives (T1/2) were determined for G1T38 (in-house results and calculated as part of NCT02821624) and
In lower order species, mice and rats, values are similar between both compounds, however in dogs and […]

The nature of series [10]: Cellular potency compared with palbociclib. It is filed as cell-based.
For series [11], the system named is castration resistant prostate cancer (CRPC) models. Also on record: method as in Stice JP, Wardell SE, Norris, JD et al., in press. As to conditions: ref Stice JP, Wardell SE, Norris, JD et al., in press; cited from earlier work.
Series [12] can be described thus: Accumulation potential in plasma, 28-day repeat dose. The conditions noted are these: Rat, 28-day daily oral treatment.

T5 sequence (Q9H2G2 whole entry): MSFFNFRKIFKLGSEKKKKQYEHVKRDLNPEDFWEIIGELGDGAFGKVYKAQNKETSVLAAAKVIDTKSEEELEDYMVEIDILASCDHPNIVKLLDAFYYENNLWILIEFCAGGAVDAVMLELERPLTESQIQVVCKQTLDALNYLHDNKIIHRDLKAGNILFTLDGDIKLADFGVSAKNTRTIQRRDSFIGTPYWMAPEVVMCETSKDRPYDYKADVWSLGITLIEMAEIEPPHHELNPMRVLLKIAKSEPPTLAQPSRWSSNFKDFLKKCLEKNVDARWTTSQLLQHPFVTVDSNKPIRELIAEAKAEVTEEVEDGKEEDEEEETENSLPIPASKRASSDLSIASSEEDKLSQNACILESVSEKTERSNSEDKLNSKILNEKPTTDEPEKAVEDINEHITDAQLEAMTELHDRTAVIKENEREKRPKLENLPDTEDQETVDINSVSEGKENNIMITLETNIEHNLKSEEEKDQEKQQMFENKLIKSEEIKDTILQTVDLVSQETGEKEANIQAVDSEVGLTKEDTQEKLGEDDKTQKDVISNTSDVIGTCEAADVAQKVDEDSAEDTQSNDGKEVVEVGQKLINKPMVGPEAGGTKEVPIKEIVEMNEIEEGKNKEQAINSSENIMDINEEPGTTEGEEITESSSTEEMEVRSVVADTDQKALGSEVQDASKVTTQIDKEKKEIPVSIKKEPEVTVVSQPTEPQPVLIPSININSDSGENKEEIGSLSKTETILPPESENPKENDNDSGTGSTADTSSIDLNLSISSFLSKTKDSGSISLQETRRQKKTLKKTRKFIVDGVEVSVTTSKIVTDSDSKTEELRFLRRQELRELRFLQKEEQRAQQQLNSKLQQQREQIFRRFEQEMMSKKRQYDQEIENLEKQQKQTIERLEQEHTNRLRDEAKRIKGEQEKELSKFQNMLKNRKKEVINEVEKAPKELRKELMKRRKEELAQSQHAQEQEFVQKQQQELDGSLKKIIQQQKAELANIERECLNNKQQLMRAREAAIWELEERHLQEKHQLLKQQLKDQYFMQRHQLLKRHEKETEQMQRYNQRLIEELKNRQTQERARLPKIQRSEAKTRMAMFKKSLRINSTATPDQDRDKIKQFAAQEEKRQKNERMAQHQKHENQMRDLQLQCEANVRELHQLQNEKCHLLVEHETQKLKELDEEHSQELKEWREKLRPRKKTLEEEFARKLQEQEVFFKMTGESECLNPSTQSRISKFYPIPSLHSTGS
T3 sequence (P11802 whole entry): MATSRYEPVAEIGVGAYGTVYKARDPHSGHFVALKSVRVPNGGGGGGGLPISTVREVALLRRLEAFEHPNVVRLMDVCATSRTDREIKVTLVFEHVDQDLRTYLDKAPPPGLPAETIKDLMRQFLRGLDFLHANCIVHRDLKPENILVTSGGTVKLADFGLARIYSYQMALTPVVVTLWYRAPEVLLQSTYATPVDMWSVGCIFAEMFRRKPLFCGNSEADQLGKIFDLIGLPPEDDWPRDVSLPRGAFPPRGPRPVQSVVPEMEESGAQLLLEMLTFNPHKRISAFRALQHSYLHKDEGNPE
T3 sequence (P24385 whole entry partner): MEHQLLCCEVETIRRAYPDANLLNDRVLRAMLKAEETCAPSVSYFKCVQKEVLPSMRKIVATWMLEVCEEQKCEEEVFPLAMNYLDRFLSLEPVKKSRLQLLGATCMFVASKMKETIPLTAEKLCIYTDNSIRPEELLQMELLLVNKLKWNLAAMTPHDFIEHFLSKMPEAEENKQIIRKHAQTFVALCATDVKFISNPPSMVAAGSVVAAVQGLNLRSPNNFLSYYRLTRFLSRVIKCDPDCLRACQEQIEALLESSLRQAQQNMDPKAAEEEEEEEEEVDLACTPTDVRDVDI
T1 sequence (Q00534 whole entry): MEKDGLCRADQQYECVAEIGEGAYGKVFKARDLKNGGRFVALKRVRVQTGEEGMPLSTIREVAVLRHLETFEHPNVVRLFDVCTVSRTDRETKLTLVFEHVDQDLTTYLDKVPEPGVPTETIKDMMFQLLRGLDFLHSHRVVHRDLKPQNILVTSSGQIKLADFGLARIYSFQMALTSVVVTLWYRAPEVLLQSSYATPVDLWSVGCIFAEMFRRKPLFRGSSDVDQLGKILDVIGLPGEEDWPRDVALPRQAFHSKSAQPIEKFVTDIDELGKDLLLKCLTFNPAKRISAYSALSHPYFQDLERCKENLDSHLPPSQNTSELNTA
T1 sequence (P30281 whole entry partner): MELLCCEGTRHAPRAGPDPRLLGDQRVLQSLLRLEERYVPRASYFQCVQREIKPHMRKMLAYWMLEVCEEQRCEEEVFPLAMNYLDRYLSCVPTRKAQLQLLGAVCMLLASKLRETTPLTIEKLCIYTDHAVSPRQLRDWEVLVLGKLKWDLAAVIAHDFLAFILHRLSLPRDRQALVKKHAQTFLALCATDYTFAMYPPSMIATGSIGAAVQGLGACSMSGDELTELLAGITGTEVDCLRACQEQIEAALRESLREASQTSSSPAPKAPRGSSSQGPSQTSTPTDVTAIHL
T2 sequence (P50613 whole entry): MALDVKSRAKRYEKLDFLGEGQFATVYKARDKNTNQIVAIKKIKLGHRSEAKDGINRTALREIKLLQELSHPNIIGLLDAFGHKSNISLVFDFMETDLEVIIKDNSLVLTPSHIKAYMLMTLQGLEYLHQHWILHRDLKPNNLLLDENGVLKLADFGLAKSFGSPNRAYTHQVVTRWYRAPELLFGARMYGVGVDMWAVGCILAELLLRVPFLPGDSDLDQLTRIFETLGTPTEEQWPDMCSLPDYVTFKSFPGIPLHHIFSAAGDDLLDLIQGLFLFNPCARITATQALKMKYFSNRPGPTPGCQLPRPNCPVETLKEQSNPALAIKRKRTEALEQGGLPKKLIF
T2 sequence (P51946 whole entry partner): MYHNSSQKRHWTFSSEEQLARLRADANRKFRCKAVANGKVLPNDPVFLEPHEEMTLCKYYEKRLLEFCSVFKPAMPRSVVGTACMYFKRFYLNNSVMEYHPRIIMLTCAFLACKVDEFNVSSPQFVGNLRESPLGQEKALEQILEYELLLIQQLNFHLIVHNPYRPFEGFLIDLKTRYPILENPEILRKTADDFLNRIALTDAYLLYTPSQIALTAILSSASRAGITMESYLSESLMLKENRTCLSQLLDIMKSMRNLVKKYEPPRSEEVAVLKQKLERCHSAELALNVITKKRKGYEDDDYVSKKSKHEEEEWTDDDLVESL
T2 sequence (P51948 whole entry partner): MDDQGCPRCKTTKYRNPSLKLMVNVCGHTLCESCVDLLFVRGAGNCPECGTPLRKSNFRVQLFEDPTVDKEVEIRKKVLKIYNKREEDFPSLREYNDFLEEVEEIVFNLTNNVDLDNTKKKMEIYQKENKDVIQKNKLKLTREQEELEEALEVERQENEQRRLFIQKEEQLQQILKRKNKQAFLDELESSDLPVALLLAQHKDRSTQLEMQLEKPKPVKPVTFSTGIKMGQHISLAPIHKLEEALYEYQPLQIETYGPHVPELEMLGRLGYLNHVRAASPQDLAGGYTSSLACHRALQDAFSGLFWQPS

The term IC50 denotes the midpoint of a concentration-inhibition curve. Low values mean greater potency in that assay, high ones weaker potency in that assay. Broadly, the Kd is the equilibrium constant for the complex coming apart. In general, half-life refers to how long it takes for the measured level to halve. As to `CC(C)N1CCN(c2ccc(Nc3ncc4cc5n(c4n3)C3(CCCCC3)CNC5=O)nc2)CC1.Cl.Cl` [G1T38, 2′-((5-(4-isopropylpiperazin-1-yl)pyridin-2-yl)amino)-7′, 8′dihydro-6′Hspiro[cyclohexane1,9′ pyrazino[1′,2′:1,5]pyrrolo[2,3-d]pyrimidin]-6′-one di-hydrochloride], the IC50 in series [1] is 2 nM; in [2], 2400 nM. The Kd stood at 0.15 nM in [3], 0.18 nM in [4] and 11 nM in series [5]. Further, the EC50 in [6] was more than 2500 nM. The Kp in series [7] (C57BL/6, mouse) was 17. In [7] (C57BL/6, mouse), this compound displayed a Kp at 24 h of more than 100. The concentration at 48 h in series [7] (C57BL/6, mouse) is approximately 65 ng/mL. The “drug in the plasma” value in series [7] (mouse) is “no drug was detectable”. In addition, the “neutrophil course during 28 days daily oral treatment” value in [8] is on record as “neutrophils decreased rapidly in a dose dependent manner during the first 14 days”. For the same compound, the half-life in [9] (Human, calculated as part of NCT02821624) was 15 h; in series [9] (rat) it was 3.1 h. The “cellular EC50 lower than palbociclib” value in [10] is reported as 2-3 fold. Further, the “anti-tumor activity compared with docetaxel” value in series [11] is “equivalent anti-tumor activity”. Moreover, the “Mean Accumulation Ratio (AUC0-24hr Day 28 ÷ Day 1)” value in series [12] (2.5 mg/kg) turned out to be 0.939; in [12] (5 mg/kg) it was 0.958; in series [12] (15 mg/kg), 1.22.

The values above are taken from paper PMC5522071, “Preclinical development of G1T38: A novel, potent and selective inhibitor of cyclin dependent kinases 4/6 for use as an oral antineoplastic in patients with CDK4/6 sensitive tumors” (Oncotarget, 2017).
